The star is where a group is joined. Palmitoyl = CCCCCCCCCCCCCCCC(=O)*; Myristoyl = CCCCCCCCCCCCCC(=O)*
Legend:
EAE mice = experiment: Experimental allergic encephalomyelitis (EAE), MOG35-55/CFA immunized mice; type: in vivo, C57BL/6J mice; parameters: EAE severity / average group score at the end of the experiment (day 42): dose or concentration left out as unconfirmed; settings: for Score on day 18 / Score on day 29 / Score on day 37: EAE scale 0-6; for Number of dead mice during 49 days: n=7 per group; for EAE score on the initial day (in brackets): scale 0-6
[1] = test system: keratinocytes stimulated by TNFα; experiment: Cytokine secretion in stimulated keratinocytes treated with PKCδ activator (ELISA); type: cell-based, BALB/C mice; settings: medium collected after 48 hr
Description: (§1) PKCδ activators were also shown to have an anti-inflammatory effect on keratinocytes and splenocytes. Keratinocytes were derived from newborn BALB/C mice skin. The cells were incubated for 5 days in 24 wells plate. Cells were then incubated with PBS−/− as control or stimulated by LPS or TNFα. The PKCδ inhibitor DAP-1 (SEQ ID NO: 34) was added. Medium containing secreted cytokines was collected after 48 hr and analyzed using ELISA. FIG. 43 is a tabular summary showing cytokine secretion in splenocytes stimulated with LPS. FIG. 44 is a tabular summary of cytokine secretion in keratinocytes stimulated by TNFα.

[2] = test system: splenocytes stimulated with LPS; experiment: Cytokine secretion in splenocytes stimulated with LPS, treated with PKCδ activator; type: cell-based
Description: as §1

activated keratinocytes = experiment: Cytokine secretion in LPS, TNFα or IL-17 activated keratinocytes treated with peptide PKCα inhibitors (ELISA); type: cell-based, BALB/C mice; settings: for cytokine secretion in keratinocytes stimulated by LPS, TNFα, or IL-17: medium collected after 48 hr, ELISA; for cytokine secretion from LPS and TNFα activated keratinocytes: FIGS. 19 to 23; for cytokine secretion from IL-17A activated keratinocytes: FIGS. 24 to 27
Description: To determine their effects, keratinocytes were derived from newborn BALB/C mice skin. The cells were incubated for 5 days in 24 wells plate. Cells were then incubated with PBS −/− as control or stimulated by LPS, TNFα, or IL-17. PKCα inhibitors were added as indicated. Medium containing secreted cytokines was collected after 48 hr and analyzed using ELISA. FIG. 50 is a tabular summary of cytokine secretion.

macrophages (Iba-1) = experiment: Macrophage infiltration in skin wound (Iba-1 staining); type: in vivo, C57BL/6J mouse; settings: daily treatment, five days post-wounding
Description: The effect of MPDY-1 on macrophage infiltration was also shown by Iba-1 staining. Iba-1 is a general marker for macrophages. […] As above, a two-cm longitudinal incision was done on the upper back of a C57BL/6J mouse. Following wounding, a sterile pad was sutured to the mouse's skin. Animals were treated daily with MPDY-1 (n=6). Five days post-wounding, when inflammatory phase reaches its peak, the mice were sacrificed, skin tissues were embedded in paraffin and immunohistochemical staining was performed utilizing anti-Iba-1 antibodies.

[3] = test system: histamine induced pruritus; experiment: Histamine prick test model of pruritus; type: in vivo, healthy volunteers; settings: topical application on forearm, photographs at 0, 10, 20, 30 minutes
Description: Forearms of individual subjects were injected with histamine solution and placebo. The formulation of Example 4 was topically applied with MPDY-1 at various concentrations and pruritus was assessed over a time course as shown in FIGS. 39-42.
This test was performed by placing a drop of a solution containing a possible allergen on the skin, and a series of scratches or needle pricks allow the solution to enter the skin. The extract enters into the outer layer of the skin (epidermis) using a fine needle (such as a. 26G disposable needle). This testing is not painful, and generally there is no bleeding involved since the needle only scratches the surface of the skin. If the skin develops a red, raised itchy area (called a wheal), it is as a result of allergic reaction to that allergen. This is called a positive reaction. A drop of extract is introduced through a fine needle (such as a No. 26 disposable needle). The test causes no discomfort and minimal trauma so that controls and negative test show only the site of the prick; if anything.
26G needles were utilized to introduce histamine stock (Histatrol Positive Control Histamine, 1 mg/ml, code #HIST14999V, Trupharm). The test was conducted on healthy volunteers in a double-blind, randomized test. The formulations were applied on the forearms. […]

IKK = experiment: TNFα induced IKK activation in keratinocytes (Western blot phospho-IKKa/b Ser176/180); type: cell-based, Murine; settings: 1 hour pretreatment, TNFα 35 ng/ml 15 minutes
Description: Murine primary keratinocytes were grown for 4 days to full confluence in Low Ca^+2 MEM. Cells were pretreated with designated concentration of MPDY-1 as described in the figure for 1 hour, prior to TNFα induction. Following MPDY-1 pretreatment, cells were incubated with TNFα 35 ng/ml for 15 minutes. Reaction was stopped by adding ice-cold dPBS−/− and keratinocytes were homogenized in RIPA buffer. Samples were subjected to SDS PAGE Western Blot analysis, utilizing phospho-IKKa/b (Ser176/180 antibody).

[4] = test system: activated macrophages (MAC-2); experiment: Macrophage activation in skin wound (MAC-2 staining); type: in vivo, C57BL/6J mouse; settings: daily treatment, 5 days; control vs 10 μg p=0.0028
Description: The effect of MPDY-1 on macrophage activation was also shown by MAC-2 staining. MAC-2 is a specific marker for activated macrophages. […] A two-cm longitudinal incision was done as described above. Animals were treated daily with DPBS^−/− (Control) or MPDY-1 in the specified concentrations (n=6). After 5 days immunohistochemical staining was performed utilizing anti-MAC-2 antibodies. Bar […]. (*p(control Vs. MPDY-1 10 μg)=0.0028).

[5] = 0.1 mg/kg i.p. three times a week
[6] = 1 mg/kg i.p. three times a week

## CRAMP: comparison treatment in the EAE study (0.2 and 2 mg/kg); not further described (ISRLAGLLRKGGEKIGEKLKKIGQKIKNFFQKLVPQPE; Cathelin-related antimicrobial peptide; UniProt P51437 135-172, looked up) [reference compound]
EAE mice; 0.2 mg/kg i.p. three times a week
  The initial day (first illness signs): 10 days
EAE mice; 0.2 mg/kg i.p.
  Score on day 18: 3.214
  Score on day 29: 2.000
  Score on day 37: 2.571
  Number of dead mice during 49 days: 2
  EAE score on the initial day (in brackets): 0.571
EAE mice; 2 mg/kg i.p. three times a week
  The initial day (first illness signs): 11 days
EAE mice; 2 mg/kg i.p.
  Score on day 18: 2.643
  Score on day 29: 2.643
  Score on day 37: 2.143
  Number of dead mice during 49 days: 2
  EAE score on the initial day (in brackets): 0.143

## H-His-Phe-Glu-Asp-Trp-Ile-Asp-His-Phe-Glu-Asp-Trp-Ile-Asp-OH (H-HFEDWIDHFEDWID-OH) [DAP-1]
[1]
  inflammatory cytokine secretion in keratinocytes: significantly decease inflammatory cytokine secretion
[2]
  inflammatory cytokine secretion in splenocytes: significantly decease inflammatory cytokine secretion

## H-Phe-Ala-Arg-Lys-Gly-Ala-Leu-Arg-Gln-OH (H-FARKGALRQ-OH) [AWOT-1]
Activated keratinocytes
  cytokine secretion in keratinocytes stimulated by LPS, TNFα, or IL-17: effective in decreasing cytokine secretion

## H-Phe-Ala-Arg-Lys-Gly-Ala-Leu-Arg-Gln-OH-acetate salt (H-FARKGALRQ-OH; also: acetate salt) [PDY-1]
Activated keratinocytes
  cytokine secretion from LPS and TNFα activated keratinocytes: decrease cytokine secretion
  cytokine secretion from IL-17A activated keratinocytes: decrease cytokine secretion

## H-Thr-Leu-Asn-Pro-Gln-Trp-Glu-Ser-OH (H-TLNPQWES-OH) [AIP-1]
Activated keratinocytes
  cytokine secretion in keratinocytes stimulated by LPS, TNFα, or IL-17: effective in decreasing cytokine secretion

## Myristoyl-Phe-Ala-Arg-Lys-Gly-Ala-Leu-Arg-Gln-OH (Myristoyl-FARKGALRQ-OH; SMILES CCCCCCCCCCCCCC(=O)N[C@@H](Cc1ccccc1)C(=O)N[C@@H](C)C(=O)N[C@@H](CCCNC(=N)N)C(=O)N[C@@H](CCCCN)C(=O)NCC(=O)N[C@@H](C)C(=O)N[C@@H](CC(C)C)C(=O)N[C@@H](CCCNC(=N)N)C(=O)N[C@@H](CCC(N)=O)C(=O)O) [MPDY-1]
Activated keratinocytes
  cytokine secretion from LPS and TNFα activated keratinocytes: decrease cytokine secretion
  cytokine secretion from IL-17A activated keratinocytes: decrease cytokine secretion
  cytokine secretion in keratinocytes stimulated by LPS, TNFα, or IL-17: effective in decreasing cytokine secretion
Macrophages (Iba-1)
  macrophage infiltration (Iba-1 positive cells per field): dose dependent effect
[3]
  redness, inflammation and pruritus compared with control over the time course: significantly attenuated redness, inflammation and pruritus
IKK
  TNFα induced IKK activation in keratinocytes: significantly reduced
  concentration exhibiting the strongest inhibition of IKK activation (lowest tested): 0.1 mg/mL
EAE mice
  EAE severity: reduced EAE severity
EAE mice; 0.1 mg/kg
  EAE score / clinical symptoms compared to the control group: lower score during most of the experiment days
EAE mice; [5]
  The initial day (first illness signs): 13 days
  EAE score on the initial day (in brackets): 1.000
EAE mice; 0.1 mg/kg i.p.
  Score on day 29: 2.000
  Score on day 37: 1.500
EAE mice; [6]
  The initial day (first illness signs): 11 days
EAE mice; 1 mg/kg i.p.
  Number of dead mice during 49 days: 2
  EAE score on the initial day (in brackets): 0.214
[4]
  activation of macrophages (MAC-2 positive cells per field): significantly inhibited

## Myristoyl-Phe-Ala-Arg-Lys-Gly-Ala-Leu-OH (Myristoyl-FARKGAL-OH; SMILES CCCCCCCCCCCCCC(=O)N[C@@H](Cc1ccccc1)C(=O)N[C@@H](C)C(=O)N[C@@H](CCCNC(=N)N)C(=O)N[C@@H](CCCCN)C(=O)NCC(=O)N[C@@H](C)C(=O)N[C@@H](CC(C)C)C(=O)O) [MPDY-1 sh]
Activated keratinocytes
  cytokine secretion from LPS and TNFα activated keratinocytes: decrease cytokine secretion
  cytokine secretion from IL-17A activated keratinocytes: decrease cytokine secretion

## Myristoyl-Phe-Ala-Arg-Lys-Gly-Ala-Leu-OH-trifluoracetate salt (Myristoyl-FARKGAL-OH; also: trifluoracetate salt) [AIP-2]
Activated keratinocytes
  cytokine secretion in keratinocytes stimulated by LPS, TNFα, or IL-17: effective in decreasing cytokine secretion

## Myristoyl-Thru-Arg-Lys-Arg-Gln-Arg-Ala-Met-Arg-Arg-Arg-Val-His-Gln-Ile-Asn-Gly-OH (Myristoyl-TRKRQRAMRRRVHQING-OH; SMILES CCCCCCCCCCCCCC(=O)N[C@H](C(=O)N[C@@H](CCCNC(=N)N)C(=O)N[C@@H](CCCCN)C(=O)N[C@@H](CCCNC(=N)N)C(=O)N[C@@H](CCC(N)=O)C(=O)N[C@@H](CCCNC(=N)N)C(=O)N[C@@H](C)C(=O)N[C@@H](CCSC)C(=O)N[C@@H](CCCNC(=N)N)C(=O)N[C@@H](CCCNC(=N)N)C(=O)N[C@@H](CCCNC(=N)N)C(=O)N[C@H](C(=O)N[C@@H](Cc1c[nH]cn1)C(=O)N[C@@H](CCC(N)=O)C(=O)N[C@H](C(=O)N[C@@H](CC(N)=O)C(=O)NCC(=O)O)[C@@H](C)CC)C(C)C)[C@@H](C)O) [MPE-1]
EAE mice
  EAE severity: reduced EAE severity
EAE mice; [5]
  The initial day (first illness signs): 11 days
  EAE score on the initial day (in brackets): 0.429
EAE mice; [6]
  The initial day (first illness signs): 10 days
EAE mice; 1 mg/kg i.p.
  Number of dead mice during 49 days: 4
  EAE score on the initial day (in brackets): 0.429
EAE mice; control group 2.86
  average group score at the end of the experiment (day 42): 2.00

## Palmitoyl-Phe-Ala-Arg-Lys-Gly-Ala-Leu-Arg-Gln-OH-acetate salt (Palmitoyl-FARKGALRQ-OH; also: acetate salt) [PPDY-1]
Activated keratinocytes
  cytokine secretion in keratinocytes stimulated by LPS, TNFα, or IL-17: effective in decreasing cytokine secretion

— patent US20130296224A1, “METHOD FOR TREATMENT OF INFLAMMATORY DISEASE AND DISORDER” (HealOr Ltd., priority 2011, published 2013)
